# Assay results from US20090176743A1 (priority 2005, published 2009).
# Entries after “also recorded” stand apart in the source; their conditions may differ.
# Legend:
# ICP0^− virus (n212) = assay type: cell-based, HSV-1; conditions: for effect of combined arginine and methionine deprivation on plating efficiency of ICP0- virus: three days in media containing all combinations of arginine, methionine and glutamine (FIG. 15); for effect of deprivation/refeeding on plating efficiency of ICP0- virus: 42 h in medium lacking the amino acid, normal medium 9 h, then n212 (FIG. 9)
# Experimental: Like isoleucine deprivation, serum starvation is a method commonly used to synchronize cells to G1 phase of the cell cycle. We then replaced the media with normal growth medium, infected cells with wild type (KOS) or ICP0^− virus (n212), and analyzed cells for cellular DNA content at 3-h intervals (FIG. 7).
# We infected the monolayers with an ICP0^− virus (n212) 9 h after the addition of normal medium (FIG. 8).
# Media were replaced with normal growth medium, and after a 9-h incubation, monolayers were infected with ICP0^− (n212).
# Cells were then infected with wild type or ICPO-virus to determine plating efficiency as described herein. […] In order to determine the role of isoleucine in these experiments, monolayers of cells were incubated for 42 hours in normal medium (Gln+ Ile+) or media lacking Ile, Gln, or both. Cells were then infected with wild type or ICP0^− virus to determine plating efficiency as described herein.
# For these experiments, monolayers were incubated for 1-5 days in the absence of each of the 15 amino acids present in DMEM. Cells were then infected with wild type or ICPO-virus to determine plating efficiency as described herein.
# Cells were then infected with wild type or ICPO-virus to determine plating efficiency as described herein.
# A. Ile deprivation and serum starvation. DMEM was prepared by dissolving all components individually, except Ile and Gln, in water according to Invitrogen's formulation for DMEM (catalog #11965) with 3 substitutions: 200 mg/l calcium chloride (anhydrous) for 264.92 mg/l calcium chloride dihydrate, 48 mg/l L-cystine for 63 mg/l L-cystine dihydrochloride, and 72 mg/l L-tyrosine for 104 mg/l L-tyrosine disodium salt, dihydrate. Medium was sterilized by passage through a 0.22 μm filter. Ile and Gln were added as needed, not more than two days prior to use, at final concentrations of 0.802 or 2 mM, respectively.
# Sixty-mm petri plates were seeded with 5×10^5 cells/plate and incubated 24 h at 37° C. For Ile deprivation experiments, medium was removed and monolayers were washed with warm Hanks' Balanced Salt Solution (HBSS) (37° C.) and overlaid with 4 ml warm Ile-free DMEM with 10% dialyzed FBS and 0 or 2 mM Gln. For serum starvation experiments, medium was removed and monolayers were washed with warm HBSS and overlaid with 4 ml warm serum-free DMEM with 0.802 mM Ile and 0 or 2 mM Gln. Monolayers in Ile- or serum-free media were incubated 42 h at 37° C. Media were replaced with warm DMEM containing 10% non-dialyzed FBS, 0.802 Ile, and 2 mM Gln. At 3-h intervals monolayers were infected with wild-type or ICP0-viruses to determine plating efficiency or analyzed for cellular DNA content by flow cytometry as described below.
# Infections to determine plating efficiency. Vero cell monolayers in 35-, 60-, and 100-mm plates were infected with volumes of 200 μl, 400 μl, or 2 ml/plate, respectively, with 5, 10, 20, 40, or 100 PFU/plate. For all experiments except Ile deprivation and serum starvation, titers were determined on 24-h-old Vero cell monolayers that had been seeded at a concentration of 1.5×10^5 Vero cells/35-mm plate and incubated at 37° C. […] Plates were incubated at 37° C. and shaken every 15 minutes for 1 h. Two, 4, or 10 ml of DMEM containing 5% FBS and 0.5% methyl cellulose was added to 35-, 60-, and 100-mm plates, respectively, and monolayers were incubated 3-5 days at 37° C. to allow plaques to form. Medium was aspirated, cells were stained with crystal violet, and plaques were counted.
# [1] = test system: wild-type virus latent in mouse trigeminal ganglia; test: Mouse ocular/trigeminal ganglia (TG) cell culture model of reactivation from latency; assay type: cell-based, HSV-1
# Experimental: (For details on the model, see, for example, Leib et al., J. Virol. 63:759-768 (1989), Halford et al., J. Virol. 74:5957-5967. (2000), and Halford et al., J. Virol. 75:3240-3249 (2001)). For this experiment, mice were infected with the wild-type virus and 30 days later the trigeminal ganglia (TG) were removed and incubated in 3 24-well plates in medium containing acyclovir (ACV). As indicated below the x-axis of FIG. 16, on day 7 the acyclovir was removed. On day 11, 1 24-well plate was treated by: washing once with HBSS and replacing with Gln-free medium supplemented with 10% dialyzed FBS (red); washing once with HBSS and replacing with Gln-containing medium supplemented with 10% dialyzed FBS (green); or 3-hour incubation at 43° C. followed by replacement of medium with fresh medium (blue). On day 13, Gln-free and Gln-containing medium with dialyzed FBS was replaced with medium containing Gln and 10% normal FBS. On day 16, the 2 plates not previously heat shocked were incubated for 3 hours at 43° C. followed by replacement of medium with fresh medium. Starting on day 10, 10% of the volume of each well was transferred daily to 1 well of a 96-well plate previously seeded with Vero cells. After incubation at 37° C. for 7 days, monolayers of Vero cells in the 96-well plates were examined by light microscopy for cytopathic effect. […]
# HSV-1 (KOS strain) = test: Heat-stress reactivation of latent HSV in mice treated with glutamine (Example 5); assay type: in vivo, mouse; conditions: intraperitoneally or orally, heat stress 43° C. water 10 minutes
# Experimental: The strain of HSV and the method of propagation can be as described in Example 1.
# The mice can be infected by, e.g., the topical ocular route, and the establishment of a corneal infection can be documented by slit lamp examination and ocular swabs on day 3 after infection. Only animals which are successfully infected are retained for use in these experiments. Thirty days after infection, groups of latently infected and uninfected mice are treated with the glutamine composition. […] The mice are treated one day before heat stress and the day of the heat stress.
# The glutamine composition can be given intraperitoneally in some groups of mice and orally in others. This treatment can be continued on the day the animals are heat stressed by immersion into 43° C. water for 10 minutes. Twenty-four hours after the hyperthermic stress, the eyes are swabbed to culture any infectious virus, and the mice killed to collect the trigeminal ganglia. Ocular swabs are incubated in culture medium which is then transferred to Vero cell monolayers in 96 well culture plates. Units of infectious herpesvirus are recorded as units of cytopathic effect over a period of seven days. […] The units of cytopathic effect are recorded over a seven day incubation period. […]
# ICP0 promoter-CAT [2] = test: Promoter-CAT expression in Vero cells after Ile deprivation/refeeding; assay type: cell-based, HSV-1; conditions: 0-6 hours post-release
# Experimental: (§1) Vero cells and NB41A3 cells (mouse neuroblastoma cells) were treated by Ile deprivation/refeeding as in the previous experiment. The expression of viral gene promoters was then analyzed. Promoter-chloramphenicol acetyltransferase (CAT) expression from plasmids was measured following transfection of Vero cells treated by Ile-deprivation/refeeding. ICP0 and ICP4 promoter-CAT expression increased 6- or 4-fold, respectively, at early times (0-6 hours post-release) then decreased through 10 hours post-release. In cells from the mouse neuroblastoma cell line, NB41A3, ICP0, ICP4, and ICP22/47 promoter-CAT expression was increased 6-, 10-, or 5-fold, respectively.
# ICP4 promoter-CAT [3] = test: as above; assay type: cell-based, HSV-1; conditions: 0-6 hours post-release
# Experimental: as §1
# ICP0 promoter-CAT [4] = test: Promoter-CAT expression in NB41A3 cells after Ile deprivation/refeeding; assay type: cell-based, HSV-1; conditions: NB41A3 mouse neuroblastoma cells
# Experimental: as §1
# ICP22/47 promoter-CAT = test: as above; assay type: cell-based, HSV-1; conditions: NB41A3 mouse neuroblastoma cells
# Experimental: as §1
# ICP4 promoter-CAT [5] = test: as above; assay type: cell-based, HSV-1; conditions: NB41A3 mouse neuroblastoma cells
# Experimental: as §1
# ICP0^− (7134) virus = conditions: Ile-free medium 42 hours, refeeding; first 8 h post-release; cited from earlier work
# wt (KOS) virus = conditions: Ile-free medium 42 hours, refeeding; all time points; cited from earlier work
# HSV = conditions: presence of L-lysine; cited from earlier work
compound,measurement,setting,value
N=C(N)NCCC[C@H](N)C(=O)O [arginine],effect of combined arginine and methionine deprivation on plating efficiency of ICP0- virus,ICP0^− virus (n212),synergistic effect
NC(=O)CC[C@H](N)C(=O)O [glutamine],reactivation of wild-type virus from latency (wells positive for cytopathic effect),[1]; TG incubated in 0 mM Gln (FIG. 16),reactivated more rapidly and to the same extent as heat-shocked TG
same,reactivation of wild-type virus from latency (wells positive for cytopathic effect),[1]; TG incubated in the presence of 2 mM Gln (FIG. 16),significantly reduced reactivation
same,units of infectious herpesvirus on the ocular surface vs untreated heat-stressed animals,HSV-1 (KOS strain),statistically significantly lower units of infectious herpesvirus
CC[C@H](C)[C@H](N)C(=O)O [isoleucine],effect of deprivation/refeeding on plating efficiency of ICP0- virus,ICP0^− virus (n212),little or no effect
same,increase of ICP0 promoter-CAT expression,ICP0 promoter-CAT [2],6 fold
same,increase of ICP4 promoter-CAT expression,ICP4 promoter-CAT [3],4 fold
same,increase of ICP0 promoter-CAT expression,ICP0 promoter-CAT [4],6 fold
same,increase of ICP22/47 promoter-CAT expression,ICP22/47 promoter-CAT,5 fold
same,increase of ICP4 promoter-CAT expression,ICP4 promoter-CAT [5],10 fold
same,increase in number of plaques produced by the ICP0- virus,ICP0^− (7134) virus,6 fold
same,number of plaques produced by wild type virus,wt (KOS) virus,same number of plaques at all time points tested
"NCCCC[C@H](N)C(=O)O [lysine, L-lysine]",effect of deprivation/refeeding on plating efficiency of ICP0- virus,ICP0^− virus (n212),slight enhancement; also recorded: slight increase
same,enhancement of plating efficiency of ICP0- virus by deprivation/refeeding,ICP0^− virus (n212); separate experiment,2-3 fold
same,replication efficiency of HSV in cell culture,HSV,decrease the replication efficiency
CSCC[C@H](N)C(=O)O [methionine],effect of combined arginine and methionine deprivation on plating efficiency of ICP0- virus,ICP0^− virus (n212),synergistic effect
